Legend:
human TRPV1 = biological target: T1, human TRPV1 (Homo sapiens, UniProt Q8NER1); assay: Functional assay: block of capsaicin-induced Ca2+ influx, human assay (hTRPV1/HEK293, FLIPR); format: cell-based; details: hTRPV1/HEK293 cells, 150 nM capsaicin challenge, Fluo-3 fluorescence; mean; > value = solubility limit in assay medium
T1 construct: expressed in transfected cells; host or cells: HEK293 (hTRPV1/HEK293), zeocin selection
Outline: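 HEK293 cells stably expressing human TRPV1, fluo3-loaded, preincubated 30 min with compound (serial 3-fold dilutions from 10 μM, duplicate) in 20 μM Ca2+ buffer. Capsaicin response taken as fluo3 fluorescence change before vs 100 s after agonist; IC50 by non-linear regression, mean values; free base or TFA salt.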

rat TRPV1 = biological target: T2, rat TRPV1 (Rattus norvegicus, UniProt O35433); assay: Functional assay: block of capsaicin-induced Ca2+ influx, rat assay (rTRPV1/HEK293, FLIPR); format: cell-based; details: rTRPV1/HEK293 cells, capsaicin challenge, Fluo-3 fluorescence; mean; > value = solubility limit in assay medium
T2 construct: expressed in transfected cells; host or cells: HEK293 (rTRPV1/HEK293), geneticin selection
T2 sequence (O35433 whole entry): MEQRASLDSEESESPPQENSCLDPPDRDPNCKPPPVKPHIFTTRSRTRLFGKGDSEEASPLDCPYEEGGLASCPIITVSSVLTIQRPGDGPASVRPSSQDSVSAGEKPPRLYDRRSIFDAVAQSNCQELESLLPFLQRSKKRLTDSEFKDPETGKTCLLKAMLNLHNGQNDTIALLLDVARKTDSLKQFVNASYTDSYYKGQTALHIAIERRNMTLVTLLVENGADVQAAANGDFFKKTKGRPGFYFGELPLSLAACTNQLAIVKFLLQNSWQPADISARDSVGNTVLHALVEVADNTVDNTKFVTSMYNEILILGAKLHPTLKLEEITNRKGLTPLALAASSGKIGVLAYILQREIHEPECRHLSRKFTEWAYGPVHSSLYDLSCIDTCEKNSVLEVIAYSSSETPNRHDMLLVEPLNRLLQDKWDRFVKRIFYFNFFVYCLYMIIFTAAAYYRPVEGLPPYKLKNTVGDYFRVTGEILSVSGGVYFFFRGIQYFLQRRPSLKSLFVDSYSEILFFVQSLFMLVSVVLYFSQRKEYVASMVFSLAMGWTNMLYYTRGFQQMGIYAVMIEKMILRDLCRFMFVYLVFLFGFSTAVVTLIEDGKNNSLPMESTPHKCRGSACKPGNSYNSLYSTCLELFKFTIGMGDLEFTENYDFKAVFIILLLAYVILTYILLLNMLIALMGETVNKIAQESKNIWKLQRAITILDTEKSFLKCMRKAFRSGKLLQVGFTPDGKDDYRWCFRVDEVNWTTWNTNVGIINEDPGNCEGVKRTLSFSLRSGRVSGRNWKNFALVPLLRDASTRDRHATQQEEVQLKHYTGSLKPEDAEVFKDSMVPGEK
Outline: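 Compounds, as free base or TFA salt, tested from 10 μM in three-fold steps on rTRPV1-transfected HEK293 cells, with 30 min preincubation in low-calcium (20 μM) buffer. Capsaicin-evoked Ca2+ influx measured by FLIPR fluo3 signal before and 100 s after addition. Averaged IC50 from non-linear fits.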

T1 sequence (Q8NER1 whole entry): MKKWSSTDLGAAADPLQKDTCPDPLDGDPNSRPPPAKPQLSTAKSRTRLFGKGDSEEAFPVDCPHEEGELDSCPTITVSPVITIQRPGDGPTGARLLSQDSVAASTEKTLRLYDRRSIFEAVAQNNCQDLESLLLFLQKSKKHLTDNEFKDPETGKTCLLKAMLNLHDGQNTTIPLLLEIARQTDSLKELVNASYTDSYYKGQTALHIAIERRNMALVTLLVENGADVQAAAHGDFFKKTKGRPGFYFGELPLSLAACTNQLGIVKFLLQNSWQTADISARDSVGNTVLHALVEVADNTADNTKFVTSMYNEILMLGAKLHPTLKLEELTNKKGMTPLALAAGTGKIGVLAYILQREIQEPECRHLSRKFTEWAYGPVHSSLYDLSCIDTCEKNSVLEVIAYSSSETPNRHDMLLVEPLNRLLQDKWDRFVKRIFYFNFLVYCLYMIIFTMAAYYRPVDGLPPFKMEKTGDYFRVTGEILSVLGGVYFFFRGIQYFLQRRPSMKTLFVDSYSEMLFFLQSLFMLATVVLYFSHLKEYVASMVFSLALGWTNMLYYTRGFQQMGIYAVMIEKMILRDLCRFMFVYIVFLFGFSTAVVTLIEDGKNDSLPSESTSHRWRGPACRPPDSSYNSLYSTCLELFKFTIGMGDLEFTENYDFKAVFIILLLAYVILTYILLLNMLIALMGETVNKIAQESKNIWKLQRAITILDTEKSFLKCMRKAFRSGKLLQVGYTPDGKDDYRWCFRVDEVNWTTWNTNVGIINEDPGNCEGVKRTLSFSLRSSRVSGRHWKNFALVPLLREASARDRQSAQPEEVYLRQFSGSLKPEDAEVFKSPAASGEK

| SMILES | IC50 (human TRPV1) [µM] | IC50 (rat TRPV1) [µM] |
| --- | --- | --- |
| Cc1cccc(C)c1Nc1nc2c(Nc3ccc(S(=O)(=O)N4CCCC4)cc3)ncnc2s1 [Example 104, N^2-(2,6-Dimethyl-phenyl)-N^7-[4-(pyrrolidine-1-sulfonyl)-phenyl]-thiazolo[5,4-d]pyrimidine-2,7-diamine] | 0.022 | 0.007 |
| Cc1nc(Nc2ccc(SC(C)C)cc2)c2nc(Nc3c(C)cccc3C)sc2n1 [Example 106, N^2-(2,6-Dimethyl-phenyl)-N^7-(4-isopropylsulfanyl-phenyl)-5-methyl-thiazolo[5,4-d]pyrimidine-2,7-diamine] | 0.025 | 0.026 |
| Cc1nc(Nc2ccc3c(c2)N(C)CCC3(C)C)c2nc(Nc3c(Cl)cccc3Cl)sc2n1 [Example 107, N^2-(2,6-Dichloro-phenyl)-5-methyl-N^7-(1,4,4-trimethyl-1,2,3,4-tetrahydro-quinolin-7-yl)-thiazolo[5,4-d]pyrimidine-2,7-diamine] | 0.025 | 0.002 |
| Cc1cccc(C)c1Nc1nc2c(Nc3ccc(C(F)(F)F)c(F)c3)ncnc2s1 [Example 108, N^2-(2,6-Dimethyl-phenyl)-N^7-(3-fluoro-4-trifluoromethyl-phenyl)-thiazolo[5,4-d]pyrimidine-2,7-diamine] | 0.026 | 0.014 |
| O=S(=O)(c1ccc(Nc2ncnc3sc(Nc4ccccc4Cl)nc23)cc1)N1CCCC1 [Example 109, N^2-(2-Chloro-phenyl)-N^7-[4-(pyrrolidine-1-sulfonyl)-phenyl]-thiazolo[5,4-d]pyrimidine-2,7-diamine] | 0.028 | 0.018 |
| Cc1cccc(C)c1Nc1nc2c(Nc3ccc(S(=O)(=O)N4CCN(C)CC4)cc3)ncnc2s1 [Example 110, N^2-(2,6-Dimethyl-phenyl)-N^7-[4-(4-methyl-piperazine-1-sulfonyl)-phenyl]-thiazolo[5,4-d]pyrimidine-2,7-diamine] | 0.026 | 0.02 |
| Cc1nc(Nc2ccc(OC(F)(F)F)cc2)c2nc(Nc3c(Cl)cccc3Cl)sc2n1 [Example 111, N^2-(2,6-Dichloro-phenyl)-5-methyl-N^7-(4-trifluoromethoxy-phenyl)-thiazolo[5,4-d]pyrimidine-2,7-diamine] | 0.036 | 0.016 |
| Cc1cccc(C)c1Nc1nc2c(Nc3ccc(SC(C)C)cc3)ncnc2s1 [Example 112, N^2-(2,6-Dimethyl-phenyl)-NT-(4-isopropylsulfanyl-phenyl)-thiazolo[5,4-d]pyrimidine-2,7-diamine] | 0.036 | 0.056 |
| CN(C)S(=O)(=O)c1ccc(Nc2ncnc3sc(Nc4ccccc4Cl)nc23)cc1 [Example 113, 4-[2-(2-Chloro-phenylamino)-thiazolo[5,4-d]pyrimidin-7-ylamino]-N,N-dimethyl-benzenesulfonamide] | 0.038 | 0.017 |
| CSc1ccc(Nc2nc(C)nc3sc(Nc4c(C)cccc4C)nc23)cc1 [Example 114, N^2-(2,6-Dimethyl-phenyl)-5-methyl-N^7-(4-methylsulfanyl-phenyl)-thiazolo[5,4-d]pyrimidine-2,7-diamine] | 0.039 | 0.013 |
| Cc1cccc(C)c1Nc1nc2c(Nc3ccc(S(C)(=O)=O)cc3)ncnc2s1 [Example 115, N^2-(2,6-Dimethyl-phenyl)-N^7-(4-methanesulfonyl-phenyl)-thiazolo[5,4-d]pyrimidine-2,7-diamine] | 0.044 | 0.004 |
| Cc1ccccc1Nc1nc2c(Nc3ccc(S(C)(=O)=O)cc3)ncnc2s1 [Example 116, N^7-(4-Methanesulfonyl-phenyl)-N^2-o-tolyl-thiazolo[5,4-d]pyrimidine-2,7-diamine] | 0.045 | 0.011 |
| Cc1cccc(C)c1Nc1nc2c(Nc3ccc(Cl)nc3)ncnc2s1 [Example 119, N^7-(6-Chloro-pyridin-3-yl)-N^2-(2,6-dimethyl-phenyl)-thiazolo[5,4-d]pyrimidine-2,7-diamine] | 0.056 | 0.051 |
| CSc1ccc(Nc2ncnc3sc(Nc4c(C)cccc4C)nc23)cc1 [Example 120, N^2-(2,6-Dimethyl-phenyl)-N^7-(4-methylsulfanyl-phenyl)-thiazolo[5,4-d]pyrimidine-2,7-diamine] | 0.064 | 0.015 |
| Cc1nc(Nc2ccc(C(F)(F)F)c(F)c2)c2nc(Nc3c(C)cccc3C)sc2n1 [Example 121, N^2-(2,6-Dimethyl-phenyl)-N^7-(3-fluoro-4-trifluoromethyl-phenyl)-5-methyl-thiazolo[5,4-d]pyrimidine-2,7-diamine] | 0.082 | 0.025 |
| Cc1cccc(C)c1Nc1nc2c(Nc3ccc(S(=O)(=O)C(C)C)cc3)ncnc2s1 [Example 122, N^2-(2,6-Dimethyl-phenyl)-N^7-[4-(Propane-2-sulfonyl)-phenyl]-thiazolo[5,4-d]pyrimidine-2,7-diamine] | 0.087 | 0.129 |
| Cc1cccc(C)c1Nc1nc2c(Nc3ccc(Br)cc3)ncnc2s1 [Example 123, N^7-(4-Bromo-phenyl)-N^2-(2,6-dimethyl-phenyl)-thiazolo[5,4-d]pyrimidine-2,7-diamine] | 0.097 | 0.059 |
| CSc1ccc(Nc2ncnc3sc(Nc4c(Cl)cccc4Cl)nc23)cc1Cl [Example 124, N^7-(3-Chloro-4-methylsulfanyl-phenyl)-N^2-(2,6-dichloro-phenyl)-thiazolo[5,4-d]pyrimidine-2,7-diamine] | 0.098 | 0.04 |
| Cc1nc(Nc2ccc(C(C)C)cc2)c2nc(Nc3c(C)cccc3C)sc2n1 [Example 125, N^2-(2,6-Dimethyl-phenyl)-N^7-(4-isopropyl-phenyl)-5-methyl-thiazolo[5,4-d]pyrimidine-2,7-diamine] | 0.123 | 0.019 |
| CS(=O)(=O)c1ccc(Nc2ncnc3sc(Nc4ccccc4Cl)nc23)cc1 [Example 126, N^2-(2-Chloro-phenyl)-N^7-(4-methanesulfonyl-phenyl)-thiazolo[5,4-d]pyrimidine-2,7-diamine] | 0.129 | 0.03 |
| CSc1nc(Nc2ccc(S(=O)(=O)N(C)C)cc2)c2nc(Nc3c(Cl)cccc3Cl)sc2n1 [Example 127, 4-[2-(2,6-Dichloro-phenylamino)-5-methylsulfanyl-thiazolo[5,4-d]pyrimidin-7-ylamino]-N,N-dimethyl-benzenesulfonamide] | 0.138 | 0.059 |
| CC(=O)c1ccc(Nc2ncnc3sc(Nc4c(C)cccc4C)nc23)cc1 [Example 128, 1-{4-[2-(2,6-Dimethyl-phenylamino)-thiazolo[5,4-d]pyrimidin-7-ylamino]-phenyl}-ethanone] | 0.138 | 0.121 |
| CS(=O)(=O)c1ccc(Nc2nc(N3CCCCC3)nc3sc(Nc4c(Cl)cccc4Cl)nc23)cc1 [Example 129, N^2-(2,6-Dichloro-phenyl)-N^7-(4-methanesulfonyl-phenyl)-5-piperidin-1-yl-thiazolo[5,4-d]pyrimidine-2,7-diamine] | 0.149 | 0.023 |
| Cc1nc(Nc2ccc(SC(F)(F)F)c(Cl)c2)c2nc(Nc3c(C)cccc3C)sc2n1 [Example 131, N^7-(3-Chloro-4-trifluoromethylsulfanyl-phenyl)-N^2-(2,6-dimethyl-phenyl)-5-methyl-thiazolo[5,4-d]pyrimidine-2,7-diamine] | 0.171 | 0.14 |

Source: US20080004253A1, “Thiazolopyrimidine modulators of TRPV1” (priority 2006, published 2008)
